Data: the NIST ThermoML archive (doi:10.1016/j.jct.2018.08.013)
Values joined by “and” are separate entries in the source; they are usually repeats but may differ in a detail not shown here. Equal values may be shown once.

Experiments:
[1] = xn = mol fraction of the nth substance listed; conditions: 298 K; 100 kPa; Crystal of intercomponent compound 1; X-ray diffraction; x2 = 0.493
[2] = specific heat capacity at constant pressure; xn = mol fraction of the nth substance listed; conditions: 100 kPa, Crystal of intercomponent compound 1, relaxation calorimetry, x2 = 0.493

[S] [sulfur] + [Ga]
Conditions	mass density [kg/m3]
[1]	3910

[2]
Conditions	specific heat capacity
18.16 K	12.05 J/K/kg
18.18 K	12.12 J/K/kg
20.17 K	16.52 J/K/kg
20.2 K	16.6 J/K/kg
22.19 K	21.61 J/K/kg
22.22 K	21.71 J/K/kg and 21.72 J/K/kg
24.21 K	27.33 J/K/kg
24.24 K	27.43 J/K/kg and 27.44 J/K/kg
26.24 K	33.49 J/K/kg
26.26 K	33.58 J/K/kg
28.24 K	39.83 J/K/kg
28.26 K	39.94 J/K/kg
28.27 K	39.95 J/K/kg
30.29 K	46.52 J/K/kg and 46.51 J/K/kg
35.28 K	63.34 J/K/kg
35.34 K	63.61 J/K/kg and 63.51 J/K/kg
40.32 K	80.08 J/K/kg
40.39 K	80.21 J/K/kg
40.4 K	80.32 J/K/kg
45.38 K	96.1 J/K/kg
45.44 K	96.06 J/K/kg
45.46 K	96.26 J/K/kg
50.44 K	111.7 J/K/kg
50.47 K	111.6 J/K/kg
50.51 K	111.7 J/K/kg
55.47 K	126.24 J/K/kg
55.51 K	125.95 J/K/kg
55.55 K	126.24 J/K/kg
60.51 K	140.09 J/K/kg
60.55 K	139.99 J/K/kg
60.58 K	139.99 J/K/kg
65.57 K	154.14 J/K/kg
65.59 K	154.04 J/K/kg
65.63 K	154.04 J/K/kg
70.62 K	167.6 J/K/kg
70.63 K	167.6 J/K/kg
70.66 K	167.5 J/K/kg
75.65 K	180.57 J/K/kg
75.68 K	180.86 J/K/kg
75.7 K	180.47 J/K/kg
80.7 K	194.32 J/K/kg
80.73 K	194.42 J/K/kg
80.74 K	194.32 J/K/kg
85.74 K	207.39 J/K/kg
85.77 K	207.39 J/K/kg
85.78 K	207.39 J/K/kg
90.77 K	220.55 J/K/kg
90.8 K	220.26 J/K/kg and 220.45 J/K/kg
95.75 K	232.24 J/K/kg
95.79 K	231.95 J/K/kg
95.82 K	231.85 J/K/kg
100.8 K	243.64 J/K/kg
100.86 K	242.85 J/K/kg
100.91 K	243.05 J/K/kg
106.88 K	257.1 J/K/kg and 257.39 J/K/kg
107.03 K	256.21 J/K/kg
113.66 K	272.42 J/K/kg
113.82 K	273.11 J/K/kg
113.94 K	271.54 J/K/kg
120.64 K	286.47 J/K/kg
120.83 K	286.96 J/K/kg
120.89 K	285.1 J/K/kg
127.82 K	298.56 J/K/kg
127.84 K	298.36 J/K/kg
134.78 K	310.93 J/K/kg
134.8 K	310.34 J/K/kg
134.81 K	310.25 J/K/kg
141.61 K	324 J/K/kg
141.75 K	322.43 J/K/kg
141.83 K	321.94 J/K/kg
148.61 K	333.53 J/K/kg
148.72 K	332.15 J/K/kg
148.84 K	330.48 J/K/kg
155.54 K	342.37 J/K/kg
155.64 K	340.7 J/K/kg
155.72 K	339.33 J/K/kg
162.61 K	350.82 J/K/kg
162.66 K	349.74 J/K/kg
162.73 K	349.64 J/K/kg
169.57 K	360.25 J/K/kg
169.65 K	358.19 J/K/kg
169.72 K	359.07 J/K/kg
176.58 K	367.72 J/K/kg
176.67 K	367.72 J/K/kg
